Molecules are shown by their SMILES. Bounds are passed on as bounds.

In one experiment the target is human CB2 receptors (Homo sapiens (Human), UniProt P34972). The experiment is described as follows: cAMP assay, CHO cells expressing human CB2 receptors. The settings on record: CHO cells expressing human CB2, cAMP; read-out: human CB2 EC50. It counts as cell-based. A digest of the protocol: (§1)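 Whole CHO cells were preincubated in Krebs Ringer bicarbonate buffer with 1 mM IBMX for 30 min at 30 °C, then exposed to compounds for 30 min at 30 °C. cAMP was quantified by time-resolved FRET (cAMP-Nano-TRF) against a standard curve, and EC50 values were derived.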
On the technique in general: cAMP levels reflect the balance of adenylyl cyclase and phosphodiesterase activity.

The target in another experiment is human CB1 receptors (Homo sapiens (Human), UniProt P21554). The experiment is described as follows: cAMP assay, CHO cells expressing human CB1 receptors. It counts as cell-based. The settings on record: CHO cells expressing human CB1, cAMP; read-out: human CB1 EC50. A digest of the protocol: as §1
human CB1 receptors, sequence (P21554 whole entry): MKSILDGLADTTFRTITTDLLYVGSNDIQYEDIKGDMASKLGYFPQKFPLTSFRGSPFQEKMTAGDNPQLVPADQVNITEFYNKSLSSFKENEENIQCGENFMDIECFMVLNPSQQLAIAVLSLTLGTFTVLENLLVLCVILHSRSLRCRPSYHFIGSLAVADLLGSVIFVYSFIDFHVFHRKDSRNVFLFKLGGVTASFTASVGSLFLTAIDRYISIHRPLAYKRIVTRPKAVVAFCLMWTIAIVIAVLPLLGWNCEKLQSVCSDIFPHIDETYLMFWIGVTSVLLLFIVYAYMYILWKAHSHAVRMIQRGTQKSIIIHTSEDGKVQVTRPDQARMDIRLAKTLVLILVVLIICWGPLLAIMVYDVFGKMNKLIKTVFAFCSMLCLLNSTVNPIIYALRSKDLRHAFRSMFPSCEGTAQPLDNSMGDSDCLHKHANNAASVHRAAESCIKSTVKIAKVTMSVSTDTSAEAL

human CB2 receptors, sequence (P34972 whole entry): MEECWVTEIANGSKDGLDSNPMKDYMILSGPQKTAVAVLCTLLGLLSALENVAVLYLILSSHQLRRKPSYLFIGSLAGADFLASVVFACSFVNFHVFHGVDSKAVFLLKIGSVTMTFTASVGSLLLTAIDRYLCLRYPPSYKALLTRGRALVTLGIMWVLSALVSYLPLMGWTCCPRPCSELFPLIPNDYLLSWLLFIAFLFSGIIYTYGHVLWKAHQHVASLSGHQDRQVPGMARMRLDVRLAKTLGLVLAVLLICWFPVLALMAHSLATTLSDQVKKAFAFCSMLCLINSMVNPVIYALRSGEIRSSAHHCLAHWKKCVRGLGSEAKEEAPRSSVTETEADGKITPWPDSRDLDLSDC

`CCC(CC)(NC(=O)c1ccc(N2CC(F)(F)C2)c(OCC2CC2)n1)C(=O)NC` [Example 86, 6-Cyclopropylmethoxy-5-(3,3-difluoro-azetidin-1-yl)-pyridine-2-carboxylic acid (1-ethyl-1-methylcarbamoyl-propyl)-amide]: the results for the EC50 at human CB2 receptors and at human CB1 receptors were 33.1 nM and greater than 10000 nM, respectively.
Regarding `CNC(=O)C(C)(C)NC(=O)c1ccc(N2CC(F)(F)C2)c(OCC2CC2)n1` [Example 87, 6-Cyclopropylmethoxy-5-(3,3-difluoro-azetidin-1-yl)-pyridine-2-carboxylic acid (1-methyl-1-methylcarbamoyl-ethyl)-amide], the EC50 (as a rule, the concentration that produces a half-maximal response) on human CB2 receptors is 476 nM; on human CB1 receptors, greater than 10000 nM.
`CC(C)(NC(=O)c1ccc(Cl)c(-c2cccc(Cl)c2)n1)c1ncon1` [Example 88, 5-Chloro-6-(3-chloro-phenyl)-pyridine-2-carboxylic acid (1-methyl-1-[1,2,4]oxadiazol-3-yl-ethyl)-amide]: the results for the EC50 at human CB2 receptors and at human CB1 receptors were 356 nM and greater than 10000 nM, respectively.
For `COc1ccc(C(=O)NC(C)(C)c2noc(C)n2)nc1-c1cccc(Cl)c1` [Example 89, 6-(3-Chloro-phenyl)-5-methoxy-pyridine-2-carboxylic acid [1-methyl-1-(5-methyl-[1,2,4]oxadiazol-3-yl)-ethyl]-amide], in that order: 119 nM and 1360 nM.
For `COc1ccc(C(=O)NC(C)(C)c2ncco2)nc1-c1cccc(Cl)c1` [Example 90, 6-(3-Chloro-phenyl)-5-methoxy-pyridine-2-carboxylic acid (1-methyl-1-oxazol-2-yl-ethyl)-amide], the EC50 on human CB2 receptors was 217 nM; at human CB1 receptors, greater than 10000 nM.
As for `CCC(CC)(NC(=O)c1ccc(Cl)c(-c2cccc(Cl)c2)n1)C(=O)NC` [Example 91, 5-Chloro-6-(3-chloro-phenyl)-pyridine-2-carboxylic acid (1-ethyl-1-methylcarbamoyl-propyl)-amide], the figures for the EC50 at human CB2 receptors and at human CB1 receptors were 632 nM and greater than 10000 nM, respectively.
With `COC(=O)C1CCCCC1NC(=O)c1cccc(C2CCCCC2)n1` (stereo not shown) [Example 92, 2-[(6-Cyclohexyl-pyridine-2-carbonyl)-amino]-cyclohexanecarboxylic acid methyl ester], the EC50 at human CB2 receptors is 320 nM; at human CB1 receptors, greater than 10000 nM.
Regarding `CC(C)(NC(=O)c1ccc(C2CCOCC2)c(OCC2CC2)n1)c1ncco1` [Example 93, 6-Cyclopropylmethoxy-5-(tetrahydro-pyran-4-yl)-pyridine-2-carboxylic acid (1-methyl-1-oxazol-2-yl-ethyl)-amide], the figures for the EC50 at human CB2 receptors and on human CB1 receptors were 120 nM and greater than 10000 nM, respectively.
For `O=C(NN1CCCCC1)c1cccc(C2CCCC2)n1` [Example 94, 6-Cyclopentyl-pyridine-2-carboxylic acid piperidin-1-ylamide], the EC50 at human CB2 receptors is 129 nM; at human CB1 receptors it was greater than 10000 nM.
Consider `CC(C)(NC(=O)c1ccc(C2CC2)c(-c2cccc(Cl)c2)n1)c1ncco1` [Example 95, 6-(3-Chloro-phenyl)-5-cyclopropyl-pyridine-2-carboxylic acid (1-methyl-1-oxazol-2-yl-ethyl)-amide], for which the EC50 was 83.9 nM on human CB2 receptors and greater than 10000 nM on human CB1 receptors.
For `Cc1nc(C(C)(C)NC(=O)c2ccc(C3CC3)c(-c3cccc(Cl)c3)n2)no1` [Example 96, 6-(3-Chloro-phenyl)-5-cyclopropyl-pyridine-2-carboxylic acid [1-methyl-1-(5-methyl-[1,2,4]oxadiazol-3-yl)-ethyl]-amide], in that order: 95.8 nM and 1440 nM.
On to `NC(=O)[C@H](CC1CC1)NC(=O)c1ccc(C2CC2)c(-c2cccc(Cl)c2)n1` [Example 97, 6-(3-Chloro-phenyl)-5-cyclopropyl-pyridine-2-carboxylic acid ((S)-1-carbamoyl-2-cyclopropyl-ethyl)-amide], for which the EC50 was 508 nM at human CB2 receptors and greater than 10000 nM at human CB1 receptors.
On to `NC(=O)[C@H](CC1CC1)NC(=O)c1ccc(C2CC2)c(OCC2CC2)n1` [Example 98, 5-Cyclopropyl-6-cyclopropylmethoxy-pyridine-2-carboxylic acid ((S)-1-carbamoyl-2-cyclopropyl-ethyl)-amide], for which the EC50 on human CB2 receptors was 27.6 nM; on human CB1 receptors, greater than 10000 nM.
Take `O=C(N[C@@H](CC1CC1)c1nccs1)c1ccc(C2CC2)c(OCC2CC2)n1` [Example 99, 5-Cyclopropyl-6-cyclopropylmethoxy-pyridine-2-carboxylic acid ((S)-2-cyclopropyl-1-thiazol-2-yl-ethyl)-amide]: the EC50 was 59.7 nM on human CB2 receptors and greater than 10000 nM at human CB1 receptors.
For `CC(C)C[C@H](NC(=O)c1ccc(C2CC2)c(OCC2CC2)n1)C(N)=O` [Example 100, 5-Cyclopropyl-6-cyclopropylmethoxy-pyridine-2-carboxylic acid ((S)-1-carbamoyl-3-methyl-butyl)-amide], the EC50 at human CB2 receptors stood at 1.2 nM; on human CB1 receptors, 801 nM.
On to `CC(C)(NC(=O)c1ccc(C2CCOC2)c(-c2cccc(Cl)c2)n1)c1nccs1` (stereo not shown) [Example 101, 6-(3-Chloro-phenyl)-5-(tetrahydro-furan-3-yl)-pyridine-2-carboxylic acid (1-methyl-1-thiazol-2-yl-ethyl)-amide], for which the EC50 on human CB2 receptors is 102 nM; on human CB1 receptors, greater than 10000 nM.
In the case of `Cc1nc(C(C)(C)NC(=O)c2ccc(N3CC(F)(F)C3)c(OCC3CC3)n2)no1` [Example 102, 6-Cyclopropylmethoxy-5-(3,3-difluoro-azetidin-1-yl)-pyridine-2-carboxylic acid [1-methyl-1-(5-methyl-[1,2,4]oxadiazol-3-yl)-ethyl]-amide], the figures for the concentration giving a half-maximal response (EC50) on human CB2 receptors and on human CB1 receptors were 62.7 nM and greater than 10000 nM, respectively.
With `NC(=O)[C@H](CC1CC1)NC(=O)c1ccc(N2CC(F)(F)C2)c(OCC2CC2)n1` [Example 103, 6-Cyclopropylmethoxy-5-(3,3-difluoro-azetidin-1-yl)-pyridine-2-carboxylic acid ((S)-1-carbamoyl-2-cyclopropyl-ethyl)-amide], the EC50 is 7 nM at human CB2 receptors and greater than 10000 nM on human CB1 receptors.
For `CC(C)(NC(=O)c1ccc(Cl)c(-c2cccc(Cl)c2)n1)c1ncco1` [Example 104, 5-Chloro-6-(3-chloro-phenyl)-pyridine-2-carboxylic acid (1-methyl-1-oxazol-2-yl-ethyl)-amide], the EC50 is 517 nM at human CB2 receptors and greater than 10000 nM on human CB1 receptors.
Consider `CC(C)C[C@H](NC(=O)c1ccc(Cl)c(-c2cccc(Cl)c2)n1)C(N)=O` [Example 105, 5-Chloro-6-(3-chloro-phenyl)-pyridine-2-carboxylic acid ((S)-1-carbamoyl-3-methyl-butyl)-amide], for which the figures for the EC50 on human CB2 receptors and at human CB1 receptors were 208 nM and greater than 10000 nM, respectively.
For `Cc1nc(C(C)(C)NC(=O)c2ccc(C3CCCC3)c(-c3cccc(Cl)c3)n2)no1` [Example 106, 6-(3-Chloro-phenyl)-5-cyclopentyl-pyridine-2-carboxylic acid [1-methyl-1-(5-methyl-[1,2,4]oxadiazol-3-yl)-ethyl]-amide], in that order: 215 nM and greater than 10000 nM.
As for `NC(=O)[C@H](CC1CC1)NC(=O)c1ccc(C2CCCC2)c(OCC2CC2)n1` [Example 107, 5-Cyclopentyl-6-cyclopropylmethoxy-pyridine-2-carboxylic acid ((S)-1-carbamoyl-2-cyclopropyl-ethyl)-amide], the EC50 on human CB2 receptors came out at 10.7 nM; at human CB1 receptors, 1460 nM.
Consider `Cc1nc(C(C)(C)NC(=O)c2ccc(Cl)c(OCC3CC3)n2)no1` [Example 108, 5-Chloro-6-cyclopropylmethoxy-pyridine-2-carboxylic acid [1-methyl-1-(5-methyl-[1,2,4]oxadiazol-3-yl)-ethyl]-amide], for which the EC50 at human CB2 receptors is 190 nM; on human CB1 receptors it was greater than 10000 nM.
On to `CCC(CC)(NC(=O)c1ccc(Cl)c(OCC2CC2)n1)C(=O)NC` [Example 109, 5-Chloro-6-cyclopropylmethoxy-pyridine-2-carboxylic acid (1-ethyl-1-methylcarbamoyl-propyl)-amide], for which the EC50 on human CB2 receptors is 178 nM; at human CB1 receptors, greater than 10000 nM.
For `NC(=O)[C@H](CC1CC1)NC(=O)c1ccc(Br)c(OCC2CC2)n1` [Example 110, 5-Bromo-6-cyclopropylmethoxy-pyridine-2-carboxylic acid ((S)-1-carbamoyl-2-cyclopropyl-ethyl)-amide], in that order: 224 nM and greater than 10000 nM.
For `CCC(CC)(NC(=O)c1ccc(C2CCCC2)c(OCC2CC2)n1)C(=O)NC` [Example 111, 5-Cyclopentyl-6-cyclopropylmethoxy-pyridine-2-carboxylic acid (1-ethyl-1-methylcarbamoyl-propyl)-amide], in that order: 6.9 nM and greater than 10000 nM.
With `NC(=O)[C@H](CC1CC1)NC(=O)c1ccc(N2CCC(F)(F)C2)c(OCC2CC2)n1` [Example 112, 6-Cyclopropylmethoxy-5-(3,3-difluoro-pyrrolidin-1-yl)-pyridine-2-carboxylic acid ((S)-1-carbamoyl-2-cyclopropyl-ethyl)-amide], the EC50 at human CB2 receptors is 15.4 nM; on human CB1 receptors, greater than 10000 nM.
As for `NC(=O)[C@H](CC1CC1)NC(=O)c1ccc(C(F)(F)F)c(OCC2CC2)n1` [Example 113, 6-Cyclopropylmethoxy-5-trifluoromethyl-pyridine-2-carboxylic acid ((S)-1-carbamoyl-2-cyclopropyl-ethyl)-amide], the values for the EC50 on human CB2 receptors and at human CB1 receptors were 200 nM and greater than 10000 nM, respectively.
For the molecule `CC(C)C[C@H](NC(=O)c1ccc(C2CCOC2)c(OCC2CC2)n1)C(N)=O` (stereo partly drawn) [Example 114, 6-Cyclopropylmethoxy-5-(tetrahydro-furan-3-yl)-pyridine-2-carboxylic acid ((S)-1-carbamoyl-3-methyl-butyl)-amide], the EC50 on human CB2 receptors turned out to be 5.7 nM; at human CB1 receptors it was 703 nM.
